Values quoted from earlier work as cited in patent publication US4758437A, “Composition for long acting nicardipine preparation and process of producing the composition” (Yamanouchi Pharmaceutical Co., Ltd., priority 1987, dated 1988).

solubility in the first fluid of Japanese Pharmacopeia IX (about pH 1.2, nicardipine or its salt): good solubility | solubility in the second fluid of Japanese Pharmacopeia IX (about pH 7.5): sparingly soluble | solubility in intestinal juice (intestinal juice): practically insoluble
SMILES: COC(=O)C1=C(C)NC(C)=C(C(=O)OCCN(C)Cc2ccccc2)C1c1cccc([N+](=O)[O-])c1 (stereo not drawn) [nicardipine, 2,6-dimethyl-4-(3'-nitrophenyl)-1,4-dihydropyridine-3,5-dicarboxylic acid-3-methyl ester-5-β-(N-benzyl-N-methylamino)-ethyl ester]
